Data reported in article PMC11172384, “Specific Mutations Reverse Regulatory Effects of Adenosine Phosphates and Increase Their Binding Stoichiometry in CBS Domain-Containing Pyrophosphatase” (International Journal of Molecular Sciences, 2024).
Each block holds one compound with its values, some of them ahead of it.

How the values were obtained:
[1] = target: T1, dhPPase (Desulfitobacterium hafniense CBS-PPase) (Desulfitobacterium hafniense, UniProt B8FP42); experiment: isothermal titration calorimetry, single-binding-site model; conditions: read-out: KN
T1 construct: gene Dhaf_1515; full-length, tag-less, recombinant in E. coli BL21 (pET-42b); homotetramer
T1 sequence (B8FP42 1-544): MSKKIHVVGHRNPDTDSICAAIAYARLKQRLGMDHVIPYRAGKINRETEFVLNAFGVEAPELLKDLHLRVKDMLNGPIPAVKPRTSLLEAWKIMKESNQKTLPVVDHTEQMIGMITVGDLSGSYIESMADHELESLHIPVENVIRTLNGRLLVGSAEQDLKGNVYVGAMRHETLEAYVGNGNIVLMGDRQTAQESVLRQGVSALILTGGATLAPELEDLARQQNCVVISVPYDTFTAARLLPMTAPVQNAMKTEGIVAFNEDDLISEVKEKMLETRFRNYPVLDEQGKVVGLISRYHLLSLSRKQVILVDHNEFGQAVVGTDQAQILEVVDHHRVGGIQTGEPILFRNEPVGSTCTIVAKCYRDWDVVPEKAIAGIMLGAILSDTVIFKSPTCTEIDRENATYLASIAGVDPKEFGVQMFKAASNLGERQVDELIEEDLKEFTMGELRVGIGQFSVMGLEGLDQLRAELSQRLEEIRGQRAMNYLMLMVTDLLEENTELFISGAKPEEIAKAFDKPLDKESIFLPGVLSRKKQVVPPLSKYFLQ
Excerpt: (§1) isothermal titration calorimetry, single-binding-site model on dhPPase (Desulfitobacterium hafniense CBS-PPase)

[2] = target: T2, dhPPase (Desulfitobacterium hafniense CBS-PPase) (Desulfitobacterium hafniense, UniProt B8FP42, G118A); experiment: as above; conditions: read-out: KN
T2 construct: gene Dhaf_1515; full-length, tag-less, recombinant in E. coli BL21 (pET-42b); homotetramer
Excerpt: as §1

[3] = target: T3, dhPPase (Desulfitobacterium hafniense CBS-PPase) (Desulfitobacterium hafniense, UniProt B8FP42, G118M); experiment: as above; conditions: read-out: KN
T3 construct: gene Dhaf_1515; full-length, tag-less, recombinant in E. coli BL21 (pET-42b); homotetramer
Excerpt: as §1

[4] = target: T4, dhPPase (Desulfitobacterium hafniense CBS-PPase) (Desulfitobacterium hafniense, UniProt B8FP42, K100A); experiment: as above; conditions: read-out: KN
T4 construct: gene Dhaf_1515; full-length, tag-less, recombinant in E. coli BL21 (pET-42b); homotetramer
Excerpt: as §1

[5] = target: T5, dhPPase (Desulfitobacterium hafniense CBS-PPase) (Desulfitobacterium hafniense, UniProt B8FP42, K95A); experiment: as above; conditions: read-out: KN
T5 construct: gene Dhaf_1515; full-length, tag-less, recombinant in E. coli BL21 (pET-42b); homotetramer
Excerpt: as §1

[6] = target: T3, dhPPase (Desulfitobacterium hafniense CBS-PPase); experiment: activation of PPi hydrolysis, continuous Pi assay, Hill fit; format: biochemical; conditions: read-out: Adenosine Phosphate and Parameter Value ^a / Ap4A / K
Excerpt: (§2) activation of PPi hydrolysis, continuous Pi assay, Hill fit on dhPPase (Desulfitobacterium hafniense CBS-PPase)

[7] = target: T4, dhPPase (Desulfitobacterium hafniense CBS-PPase); experiment: as above; format: biochemical; conditions: read-out: Adenosine Phosphate and Parameter Value ^a / Ap4A / K
Excerpt: as §2

[8] = target: T6, dhPPase (Desulfitobacterium hafniense CBS-PPase) (Desulfitobacterium hafniense, UniProt B8FP42, V117A); experiment: as above; format: biochemical; conditions: read-out: Adenosine Phosphate and Parameter Value ^a / Ap4A / K
T6 construct: gene Dhaf_1515; full-length, tag-less, recombinant in E. coli BL21 (pET-42b); homotetramer
Excerpt: as §2

[9] = target: T7, dhPPase (Desulfitobacterium hafniense CBS-PPase) (Desulfitobacterium hafniense, UniProt B8FP42, V117T); experiment: as above; format: biochemical; conditions: read-out: Adenosine Phosphate and Parameter Value ^a / Ap4A / K
T7 construct: gene Dhaf_1515; full-length, tag-less, recombinant in E. coli BL21 (pET-42b); homotetramer
Excerpt: as §2

[10] = target: T1, dhPPase (Desulfitobacterium hafniense CBS-PPase); experiment: continuous Pi assay; format: biochemical; conditions: pH 7.2, 25 °C, 5.23 mM MgCl2, 140 µM PPi
[11] = target: T8, dhPPase (Desulfitobacterium hafniense CBS-PPase) (Desulfitobacterium hafniense, UniProt B8FP42, E126A); experiment: isothermal titration calorimetry, single-binding-site model; conditions: read-out: KN
T8 construct: gene Dhaf_1515; full-length, tag-less, recombinant in E. coli BL21 (pET-42b); homotetramer
Excerpt: as §1

T4 sequence (B8FP42 entry or part of it K100A): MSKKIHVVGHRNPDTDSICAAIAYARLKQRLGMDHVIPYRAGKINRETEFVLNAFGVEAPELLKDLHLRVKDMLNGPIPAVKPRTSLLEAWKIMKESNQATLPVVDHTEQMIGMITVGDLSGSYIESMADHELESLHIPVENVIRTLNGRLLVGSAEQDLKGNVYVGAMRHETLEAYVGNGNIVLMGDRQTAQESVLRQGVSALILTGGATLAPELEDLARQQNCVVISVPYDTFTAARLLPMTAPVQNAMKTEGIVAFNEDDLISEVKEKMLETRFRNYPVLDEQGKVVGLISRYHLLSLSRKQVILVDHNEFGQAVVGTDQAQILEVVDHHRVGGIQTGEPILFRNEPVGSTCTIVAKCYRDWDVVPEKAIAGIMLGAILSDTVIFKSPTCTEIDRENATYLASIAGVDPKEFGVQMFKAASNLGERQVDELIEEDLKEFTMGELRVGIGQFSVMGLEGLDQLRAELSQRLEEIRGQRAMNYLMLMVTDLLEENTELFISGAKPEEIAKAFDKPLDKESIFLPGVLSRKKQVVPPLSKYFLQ
T3 sequence (B8FP42 entry or part of it G118M): as the sequence (B8FP42 entry or part of it K100A) above, with A100K, G118M counted along it
T7 sequence (B8FP42 entry or part of it V117T): as the sequence (B8FP42 entry or part of it K100A) above, with A100K, V117T counted along it
T2 sequence (B8FP42 entry or part of it G118A): as the sequence (B8FP42 entry or part of it K100A) above, with A100K, G118A counted along it
T8 sequence (B8FP42 entry or part of it E126A): as the sequence (B8FP42 entry or part of it K100A) above, with A100K, E126A counted along it
T6 sequence (B8FP42 entry or part of it V117A): as the sequence (B8FP42 entry or part of it K100A) above, with A100K, V117A counted along it
T5 sequence (B8FP42 entry or part of it K95A): as the sequence (B8FP42 entry or part of it K100A) above, with K95A, A100K counted along it

Compound: Nc1ncnc2c1ncn2[C@@H]1O[C@H](COP(=O)(O)OP(=O)(O)OP(=O)(O)OP(=O)(O)OC[C@H]2O[C@@H](n3cnc4c(N)ncnc43)[C@H](O)[C@@H]2O)[C@@H](O)[C@H]1O [Ap4A]
EC50 [6]: 28 ± 1 nM | EC50 [7]: 11.5 ± 0.1 nM | EC50 [8]: 120 ± 10 nM | EC50 [9]: 1.3 ± 0.05 nM

Compound: Nc1ncnc2c1ncn2[C@@H]1O[C@H](COP(=O)(O)OP(=O)(O)OP(=O)(O)O)[C@@H](O)[C@H]1O [ATP]
Kd [1]: 2100 ± 300 nM

Compound: O=P(O)(O)OP(=O)(O)O [PPi]
continuous Pi assay [10]: The initial rates of PPi hydrolysis were measured using a continuous Pi assay

Next, values leading:

Kd [1]: 800 ± 300 nM | Kd [2]: 4200 ± 600 nM | Kd [3]: 520 ± 70 nM | Kd [4]: 1300 ± 200 nM | Kd [5]: 4600 ± 700 nM
Compound: Nc1ncnc2c1ncn2[C@@H]1O[C@H](COP(=O)(O)O)[C@@H](O)[C@H]1O [AMP]

Kd [1]: 1000 ± 200 nM | Kd [11]: 600 ± 100 nM | Kd [4]: 6000 ± 2000 nM
Compound: Nc1ncnc2c1ncn2[C@@H]1O[C@H](COP(=O)(O)OP(=O)(O)O)[C@@H](O)[C@H]1O [ADP]
